Holding throughout (format): toxicity, cell-based
Data set [1] concerns Fibroblast. As to the kind of experiment: Incucyte cell viability with human fibroblast. Conditions: 10 µM, compound concentration 10 uM.
The test system of data set [2] is U2OS. Nature of the data set: Incucyte cell viability with U2OS. Conditions: human, 10 µM, compound concentration 10 uM.
The subject of data set [3] is HEK-293T. Nature of the data set: Incucyte cell viability with HEK293T. As to conditions: human, 10 µM, compound concentration 10 uM.

The record followed here is ChEMBL document CHEMBL5303304, “EUbOPEN Chemogenomics Library - IncuCyte” (2023).
Further: unitless GR value; below 1 slowed growth and below 0 cell loss.

On to `CN[C@@H]1CC[C@@H](c2ccc(Cl)c(Cl)c2)c2ccccc21.Cl`, for which the “Growth Rate” value is -0.46 in data set [1] (6 h, replicate number 1); -0.24 in data set [1] (12 h, replicate number 1); -0.45 in data set [1] (12 h, replicate number 2); -0.26 in data set [1] (18 h, replicate number 1); -0.33 in data set [1] (18 h, replicate number 2); -0.06 in data set [1] (24 h, replicate number 1). Further, the “Growth Rate” value in data set [1] (24 h, replicate number 2) is on record as -0.2; in data set [2] (0 h, replicate number 1), -0.9; in data set [2] (0 h, replicate number 2), 0.34; in data set [2] (6 h, replicate number 1) it was 0.8; in data set [2] (6 h, replicate number 2) it was 0.35; in data set [2] (12 h, replicate number 1), 0.75. Also, the “Growth Rate” value in data set [2] (12 h, replicate number 2) is recorded as 0.04; in data set [2] (18 h, replicate number 1), 0.81; in data set [2] (18 h, replicate number 2), 0.41; in data set [2] (24 h, replicate number 1), 0.85; in data set [2] (24 h, replicate number 2), 0.45; in data set [3] (0 h, replicate number 2), -1. The “Growth Rate” value in data set [3] (6 h, replicate number 1) was 0; in data set [3] (6 h, replicate number 2) it was -0.43; in data set [3] (12 h, replicate number 1), 0.01; in data set [3] (12 h, replicate number 2), -0.18; in data set [3] (18 h, replicate number 1), 0.17; in data set [3] (18 h, replicate number 2), -0.04. The “Growth Rate” value turned out to be 0.2 in data set [3] (24 h, replicate number 1) and 0.07 in data set [3] (24 h, replicate number 2).
For `OC(c1ccc(-c2ccc(CN3CCN(Cc4ccncc4)CC3)cc2)c(F)c1)(C(F)(F)F)C(F)(F)F`, the “Growth Rate” value in data set [1] (0 h, replicate number 1) is recorded as 0.65; in data set [1] (6 h, replicate number 1), -0.31; in data set [1] (6 h, replicate number 2), -0.55; in data set [1] (12 h, replicate number 1) it was 0.07; in data set [1] (12 h, replicate number 2) it was -0.38; in data set [1] (18 h, replicate number 1), 0.24. Moreover, the “Growth Rate” value is reported as -0.18 in data set [1] (18 h, replicate number 2); 0.39 in data set [1] (24 h, replicate number 1); -0.02 in data set [1] (24 h, replicate number 2); 0.44 in data set [2] (0 h, replicate number 1); 0.85 in data set [2] (6 h, replicate number 1); 0.88 in data set [2] (6 h, replicate number 2). Besides, the “Growth Rate” value in data set [2] (12 h, replicate number 1) is given as 0.84; in data set [2] (18 h, replicate number 1), 0.93; in data set [2] (18 h, replicate number 2), 0.78; in data set [2] (24 h, replicate number 2), 0.71; in data set [3] (0 h, replicate number 2), -0.93; in data set [3] (6 h, replicate number 1), -0.1. In addition, the “Growth Rate” value in data set [3] (6 h, replicate number 2) is 0.22; in data set [3] (12 h, replicate number 1) it was -0.03; in data set [3] (12 h, replicate number 2), 0.08; in data set [3] (18 h, replicate number 1) it was 0.02; in data set [3] (18 h, replicate number 2) it was 0.23; in data set [3] (24 h, replicate number 1), 0.09. In addition, the “Growth Rate” value in data set [3] (24 h, replicate number 2) is 0.29.
Regarding `COc1cccc(Cn2cc(C(=O)Nc3ccc(C)c(S(=O)(=O)N4CCOCC4)c3)c(-c3ccc(C)cc3)n2)c1`, the “Growth Rate” value worked out at 0.55 in data set [1] (0 h, replicate number 2); 0.43 in data set [1] (6 h, replicate number 1); 0.77 in data set [1] (6 h, replicate number 2); 0.7 in data set [1] (12 h, replicate number 1); 0.89 in data set [1] (18 h, replicate number 1); 0.96 in data set [2] (12 h, replicate number 1). For the same compound, the “Growth Rate” value in data set [3] (0 h, replicate number 2) is recorded as -0.05; in data set [3] (6 h, replicate number 1), 0.76; in data set [3] (18 h, replicate number 1) it was 0.99; in data set [3] (24 h, replicate number 1), 0.96.
For the compound `CCN(C(=O)CO)[C@H]1CN(/C(=N\C#N)Nc2cccc(OC(F)F)c2)N=C1c1ccc(Cl)c(Cl)c1`, the “Growth Rate” value in data set [1] (0 h, replicate number 2) is on record as 0.47; in data set [1] (6 h, replicate number 2) it was 0.31; in data set [1] (12 h, replicate number 2), 0.8; in data set [1] (24 h, replicate number 2) it was 0.98; in data set [2] (6 h, replicate number 1), 1; in data set [2] (18 h, replicate number 1), -0.52. The “Growth Rate” value in data set [2] (24 h, replicate number 1) is listed as -0.49; in data set [3] (0 h, replicate number 2) it was -0.6; in data set [3] (6 h, replicate number 2), 0.79; in data set [3] (18 h, replicate number 1), 0.96; in data set [3] (24 h, replicate number 1), 0.91.
Turning to `COc1cc(Cl)c(C(=O)N[C@@H](CN[C@H]2CC[C@@H](N)CC2)Cc2ccc(C#N)cc2)cc1-c1ccc(CN[C@H](C)c2ccc(C)cc2)o1`, the “Growth Rate” value is reported as -0.93 in data set [1] (6 h, replicate number 1); -0.83 in data set [1] (6 h, replicate number 2); -0.8 in data set [1] (12 h, replicate number 1); -0.82 in data set [1] (12 h, replicate number 2); -0.76 in data set [1] (18 h, replicate number 1); -0.74 in data set [1] (18 h, replicate number 2). Besides, the “Growth Rate” value in data set [1] (24 h, replicate number 1) was -0.72; in data set [1] (24 h, replicate number 2), -0.68; in data set [2] (0 h, replicate number 1), -1; in data set [2] (0 h, replicate number 2), -0.99; in data set [2] (6 h, replicate number 1), -0.95; in data set [2] (6 h, replicate number 2), -0.91. Further, the “Growth Rate” value in data set [2] (12 h, replicate number 1) was -0.87; in data set [2] (12 h, replicate number 2), -0.86; in data set [2] (18 h, replicate number 1), -0.77; in data set [2] (18 h, replicate number 2) it was -0.78; in data set [2] (24 h, replicate number 1), -0.74; in data set [2] (24 h, replicate number 2) it was -0.76. The “Growth Rate” value in data set [3] (0 h, replicate number 2) is listed as -1; in data set [3] (6 h, replicate number 1), -0.6; in data set [3] (6 h, replicate number 2) it was -0.61; in data set [3] (12 h, replicate number 1), -0.61; in data set [3] (12 h, replicate number 2), -0.53; in data set [3] (18 h, replicate number 1), -0.48. For the same compound, the “Growth Rate” value in data set [3] (24 h, replicate number 1) is listed as -0.42; in data set [3] (24 h, replicate number 2), -0.4.
Turning to `CCOC(=O)C1Cc2ccccc2CN1C(=O)c1ccc(SC)s1` (configuration not stated), the “Growth Rate” value in data set [1] (6 h, replicate number 2) turned out to be 0.06; in data set [1] (12 h, replicate number 1) it was 0.66; in data set [1] (12 h, replicate number 2) it was 0.1; in data set [1] (18 h, replicate number 1), 0.58; in data set [1] (18 h, replicate number 2), 0.63; in data set [1] (24 h, replicate number 1) it was 0.86. Besides, the “Growth Rate” value in data set [1] (24 h, replicate number 2) was 0.67; in data set [2] (6 h, replicate number 1), 0.96; in data set [2] (6 h, replicate number 2) it was 0.87; in data set [2] (18 h, replicate number 2) it was 0.98; in data set [2] (24 h, replicate number 2) it was 0.88; in data set [3] (0 h, replicate number 2), -0.82. Besides, the “Growth Rate” value was determined as 0.05 in data set [3] (6 h, replicate number 1); 0.28 in data set [3] (6 h, replicate number 2); 0.12 in data set [3] (12 h, replicate number 1); 0.49 in data set [3] (12 h, replicate number 2); 0.47 in data set [3] (18 h, replicate number 1); 0.5 in data set [3] (18 h, replicate number 2). In addition, the “Growth Rate” value in data set [3] (24 h, replicate number 1) is listed as 0.41; in data set [3] (24 h, replicate number 2) it was 0.5.
In the case of `O=C1COc2cc(C(=O)N(Cc3ccc(C(=O)Nc4ccncn4)cc3)C3CC3)ccc2N1`, the “Growth Rate” value was 0.36 in data set [1] (6 h, replicate number 1); 0.55 in data set [1] (6 h, replicate number 2); 0.28 in data set [1] (12 h, replicate number 1); 0.88 in data set [1] (12 h, replicate number 2); 0.54 in data set [1] (18 h, replicate number 1); 0.79 in data set [1] (18 h, replicate number 2). In addition, the “Growth Rate” value in data set [1] (24 h, replicate number 1) was 0.74; in data set [1] (24 h, replicate number 2), 0.98; in data set [2] (0 h, replicate number 1) it was -0.53; in data set [2] (0 h, replicate number 2) it was 0.72; in data set [2] (6 h, replicate number 1), 0.39; in data set [2] (6 h, replicate number 2), 0.77. The “Growth Rate” value in data set [2] (12 h, replicate number 1) is 0.37; in data set [2] (12 h, replicate number 2) it was 0.8; in data set [2] (18 h, replicate number 1), 0.61; in data set [2] (18 h, replicate number 2) it was 0.77; in data set [2] (24 h, replicate number 1), 0.73; in data set [2] (24 h, replicate number 2) it was 0.87. The “Growth Rate” value is -0.63 in data set [3] (0 h, replicate number 2); 0.38 in data set [3] (6 h, replicate number 1); 0.01 in data set [3] (6 h, replicate number 2); 0.74 in data set [3] (12 h, replicate number 1); 0.42 in data set [3] (12 h, replicate number 2); 0.75 in data set [3] (18 h, replicate number 1). The “Growth Rate” value in data set [3] (18 h, replicate number 2) is listed as 0.66; in data set [3] (24 h, replicate number 1) it was 0.95; in data set [3] (24 h, replicate number 2) it was 0.72.
Turning to `CCC(=O)O[C@@H](OP(=O)(CCCCc1ccccc1)CC(=O)N1C[C@H](C2CCCCC2)C[C@H]1C(=O)[O-])C(C)C.[Na+]` (some centres not stated), the “Growth Rate” value in data set [1] (0 h, replicate number 2) was -0.2; in data set [1] (6 h, replicate number 2) it was 0.94; in data set [1] (12 h, replicate number 1), 0.72; in data set [2] (0 h, replicate number 1), 0.02; in data set [2] (6 h, replicate number 1), 0.56; in data set [2] (12 h, replicate number 1), 0.78. In addition, the “Growth Rate” value is recorded as 0.78 in data set [2] (18 h, replicate number 1); 0.77 in data set [2] (24 h, replicate number 1); -1 in data set [3] (0 h, replicate number 2); 0.41 in data set [3] (6 h, replicate number 1); -0.23 in data set [3] (6 h, replicate number 2); 0.66 in data set [3] (12 h, replicate number 1). The “Growth Rate” value in data set [3] (12 h, replicate number 2) is on record as 0.04; in data set [3] (18 h, replicate number 1) it was 0.77; in data set [3] (18 h, replicate number 2), 0.29; in data set [3] (24 h, replicate number 1) it was 0.84; in data set [3] (24 h, replicate number 2), 0.49.
As for `COC(=O)c1sccc1S(=O)(=O)Nc1ccc(Nc2ccccc2)cc1OC`, the “Growth Rate” value was 0.71 in data set [1] (0 h, replicate number 2); 0.48 in data set [1] (6 h, replicate number 2); 0.47 in data set [1] (12 h, replicate number 2); 0.95 in data set [1] (18 h, replicate number 2); 0.74 in data set [1] (24 h, replicate number 2); -0.11 in data set [2] (0 h, replicate number 1). Besides, the “Growth Rate” value worked out at 0.61 in data set [2] (6 h, replicate number 1); 0.91 in data set [2] (6 h, replicate number 2); 0.91 in data set [2] (12 h, replicate number 1); 0.81 in data set [2] (18 h, replicate number 1); 0.9 in data set [2] (18 h, replicate number 2); 0.82 in data set [2] (24 h, replicate number 2). For the same compound, the “Growth Rate” value in data set [3] (0 h, replicate number 2) is listed as -0.92; in data set [3] (6 h, replicate number 2), 0.93; in data set [3] (12 h, replicate number 2) it was 0.77.
